The values below come from ChEMBL document CHEMBL1201862, “PubChem BioAssay data set” (2004).

One experiment concerns the target Protein Wnt-3a (Mus musculus, UniProt P27467). Description: antagonism of Wnt3a pathway luciferase reporter – Wnt-LIGHT cells, luminescence, selectivity assay for Gli-SUFU antagonist project, dose response (AID 651570).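 Also: Wnt-LIGHT reporter cells stimulated with conditioned medium from Wnt3a-producing cells.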 Format: functional. The settings on record: read-out: IC50_Mean. A general note: A reporter such as luciferase makes a cellular process visible.

The target in experiment [1] is T1, Probable nicotinate-nucleotide adenylyltransferase (Staphylococcus aureus (strain N315), UniProt P65502). It counts as functional, Staphylococcus aureus subsp. aureus N315. The settings on record: read-out: IC50_Mean.
Experiment [2] concerns the target T1, Probable nicotinate-nucleotide adenylyltransferase. It counts as functional, Staphylococcus aureus subsp. aureus N315.
For experiment [3], the target named is Adenosylmethionine-8-amino-7-oxononanoate aminotransferase (Mycobacterium tuberculosis, UniProt P9WQ81). Put plainly: Mycobacterium tuberculosis BioA enzyme inhibitor Measured in Biochemical System Using Plate Reader - 2163-02_Inhibitor_Dose_CherryPick_Activity. It counts as functional, Mycobacterium tuberculosis UT205.

Active and inactive are the calls of the source.

Usually AC50 stands for the concentration giving half of the maximal activity seen.

T1 sequence (P65502 whole entry): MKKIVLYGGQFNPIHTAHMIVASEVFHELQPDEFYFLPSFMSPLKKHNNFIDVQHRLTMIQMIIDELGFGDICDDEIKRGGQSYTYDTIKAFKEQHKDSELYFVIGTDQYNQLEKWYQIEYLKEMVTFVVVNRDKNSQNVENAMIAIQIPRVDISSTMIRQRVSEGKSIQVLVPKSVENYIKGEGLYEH
Protein Wnt-3a, sequence (P27467 whole entry): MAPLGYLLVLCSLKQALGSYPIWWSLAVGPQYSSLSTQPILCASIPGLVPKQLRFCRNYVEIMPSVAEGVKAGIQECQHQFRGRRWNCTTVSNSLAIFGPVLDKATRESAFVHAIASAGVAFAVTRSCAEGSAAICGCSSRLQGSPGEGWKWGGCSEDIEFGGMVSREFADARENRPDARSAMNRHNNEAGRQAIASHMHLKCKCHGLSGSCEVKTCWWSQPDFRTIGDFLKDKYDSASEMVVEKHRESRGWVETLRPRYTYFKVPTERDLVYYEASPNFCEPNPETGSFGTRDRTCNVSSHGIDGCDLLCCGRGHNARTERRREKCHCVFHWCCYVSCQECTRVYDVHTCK
Adenosylmethionine-8-amino-7-oxononanoate aminotransferase, sequence (P9WQ81 whole entry): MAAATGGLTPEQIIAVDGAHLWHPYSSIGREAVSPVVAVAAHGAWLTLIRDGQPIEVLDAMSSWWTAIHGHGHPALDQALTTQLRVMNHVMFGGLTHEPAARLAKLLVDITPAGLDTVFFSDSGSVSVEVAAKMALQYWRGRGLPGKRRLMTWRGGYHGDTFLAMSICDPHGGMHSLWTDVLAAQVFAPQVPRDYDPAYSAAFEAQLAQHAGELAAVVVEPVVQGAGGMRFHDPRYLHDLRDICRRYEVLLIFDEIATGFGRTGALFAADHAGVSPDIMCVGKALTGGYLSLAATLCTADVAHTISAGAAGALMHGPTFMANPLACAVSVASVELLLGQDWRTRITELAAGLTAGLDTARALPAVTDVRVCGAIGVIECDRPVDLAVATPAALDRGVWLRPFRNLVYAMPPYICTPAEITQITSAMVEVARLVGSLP

On to `CC1CCC(NC(=O)c2cccc(S(=O)(=O)N3CCN(c4ccccc4)CC3)c2)CC1` (stereo unspecified), for which, at Protein Wnt-3a, the IC50 was 28.3 µM (inactive). Take `CCC(C)n1c(=O)c(C(=O)Nc2ccccc2S(N)(=O)=O)c(O)c2ccccc21` (stereo unspecified): the results for the IC50 in experiment [1] and in experiment [2] were 41.1 µM (active) and 5.92 µM (active), respectively. Consider `O=C(CSc1nnc(SCc2ccccc2)s1)N/N=C/C=C/c1ccco1`, for which the IC50 in experiment [1] was 27.6 µM (active); in experiment [2] it was 12 µM (active). Turning to `CC(CNC(=O)CCCn1ncn2c(cc3occc32)c1=O)c1ccccc1` (stereo unspecified), the AC50 in experiment [3] was 0.785 µM (active).
